Data as given in paper PMC12022103 (Scientific Reports, 2025).
No end group written: not given here.

Tests used:
P. aeruginosa [1] = assay: Minimum inhibitory concentration (MIC), broth dilution; assay type: cell-based; settings: MH II broth, 5 × 10^5 CFU/mL, 18–24 h, 37 °C, OD600; triplicate, highest number reported; detection limit <0.5 and >128 µM
K. pneumoniae ATCC 13883 [2] = assay: Minimum bactericidal concentration (MBC); assay type: cell-based; settings: 5 µL from MIC wells plated on MH II agar, 37 °C overnight, no visible colonies, triplicate, highest number reported
Experimental: (§1) The panel of bacterial reference strains used in this work for assessment of synthetic peptide activity originated from the American Type Culture Collection (ATCC) and was obtained from the Diagnostic section at the Department of Microbiology, Oslo University Hospital. The strains used were as follows: E. coli ATCC 25922, K. pneumoniae ATCC 13883, A. baumannii ATCC 17978, S. aureus ATCC 29213, and E. faecalis ATCC 29212.
(§2) Bacterial strains were plated on cation-adjusted Mueller-Hinton (MH II) agar plates and incubated at 37 °C overnight. The day after single colonies were picked and resuspended in sterile-filtered saline (0.9%). The OD of each bacterial suspension was adjusted to McFarland standard 0.5 using a spectrophotometer (UV-1800, Shimadzu), and the suspension further diluted 1:100 in MH II broth, corresponding to 10^6 colony forming units (CFU) per mL. The inoculum suspension was used for MIC, MBC, time-kill and protease stability assessments as described below. To ensure correct inoculum sizes, 10 µL of the bacterial suspensions were diluted 2000-fold in sterile-filtered saline (0.9%) and 100 µL plated onto MH II agar plates. After overnight incubation at 37 °C, colonies were counted. If found to be outside the acceptable number (20–80 colonies per plate corresponding to ∼10^6 CFU/mL), results from further analyses were discarded.
(§3) In order to assess the minimum bactericidal concentration (MBC) of peptides, 5 µL from each well of the 96-well plate used for MIC analysis was plated onto MH II agar and incubated at 37 °C overnight. […] The experiments were performed in triplicate. Two-fold variations in MIC values were often observed between replicates.

E. faecalis ATCC 29212 [3] = assay: Minimum bactericidal concentration (MBC); assay type: cell-based; settings: 5 µL from MIC wells plated on MH II agar, 37 °C overnight, no visible colonies, triplicate, highest number reported
Experimental: as §1, §2, §3

A. baumannii ATCC 17978 [4] = assay: Minimum bactericidal concentration (MBC); assay type: cell-based; settings: 5 µL from MIC wells plated on MH II agar, 37 °C overnight, no visible colonies, triplicate, highest number reported
Experimental: as §1, §2, §3

S. aureus ATCC 29213 [5] = assay: Minimum bactericidal concentration (MBC); assay type: cell-based; settings: 5 µL from MIC wells plated on MH II agar, 37 °C overnight, no visible colonies, triplicate, highest number reported
Experimental: as §1, §2, §3

K. pneumoniae ATCC 13883 [6] = assay: Minimum inhibitory concentration (MIC), broth dilution; assay type: cell-based; settings: K. pneumoniae ATCC 13883; MH II broth, 5 × 10^5 CFU/mL, 18–24 h, 37 °C, OD600; triplicate, highest number reported; detection limit <0.5 and >128 µM
Experimental: as §1, §2
(§4) The peptides were serially diluted (two-fold) directly in 96-well plates (Greiner, MICROPLATE, 96 WELL, PP, U-BOTTOM, NATURAL, 650261) containing MH II broth, corresponding to concentrations in the range 256–0.5 µM. An equal volume of bacterial suspension was added to each well, resulting in a final inoculum of 5 × 10^5 CFU/mL and final peptide concentrations of 128–0.25 µM. The 96-well plates were incubated for 18–24 h at 37 °C, after which the OD of each well was measured at 600 nm in a plate reader (Victor Nivo, Perkin-Elmer). The minimum inhibitory concentration (MIC) was estimated as the lowest concentration of peptide that produced OD600 measurements similar to the control wells containing no bacteria. The experiments were performed in triplicate. Two-fold variations in MIC values were often observed between replicates.

E. faecalis ATCC 29212 [7] = assay: as above; assay type: cell-based; settings: E. faecalis ATCC 29212; MH II broth, 5 × 10^5 CFU/mL, 18–24 h, 37 °C, OD600; triplicate, highest number reported; detection limit <0.5 and >128 µM
Experimental: as §1, §2, §4

A. baumannii ATCC 17978 [8] = assay: as above; assay type: cell-based; settings: MH II broth, 5 × 10^5 CFU/mL, 18–24 h, 37 °C, OD600, triplicate, highest number reported, detection limit <0.5 and >128 µM
Experimental: as §1, §2, §4

S. aureus ATCC 29213 [9] = assay: as above; assay type: cell-based; settings: S. aureus ATCC 29213; MH II broth, 5 × 10^5 CFU/mL, 18–24 h, 37 °C, OD600; triplicate, highest number reported; detection limit <0.5 and >128 µM
Experimental: as §1, §2, §4

E. coli ATCC 25922 [10] = assay: as above; assay type: cell-based, Escherichia coli; settings: E. coli ATCC 25922; two-fold dilution in MH II broth, 5 × 10^5 CFU/mL, 18–24 h, 37 °C, OD600; triplicate, highest number reported; detection limit <0.5 and >128 µM
Experimental: as §1, §2, §4

P. aeruginosa [11] = assay: Minimum bactericidal concentration (MBC); assay type: cell-based; settings: 5 µL from MIC wells plated on MH II agar, 37 °C overnight, no visible colonies; triplicate, highest number reported
E. coli ATCC 25922 [12] = assay: Minimum bactericidal concentration (MBC); assay type: cell-based, Escherichia coli; settings: 5 µL from MIC wells plated on MH II agar, 37 °C overnight, no visible colonies, triplicate, highest number reported, detection limit <0.5 and >128 µM
Experimental: as §1, §2, §3

Substance | MIC, P. aeruginosa (P. aeruginosa [1]) [µM] | MBC, K. pneumoniae (K. pneumoniae ATCC 13883 [2]) [µM] | MBC, E. faecalis (E. faecalis ATCC 29212 [3]) [µM] | MBC, A. baumannii (A. baumannii ATCC 17978 [4]) [µM] | MBC, S. aureus (S. aureus ATCC 29213 [5]) [µM] | MIC, K. pneumoniae (K. pneumoniae ATCC 13883 [6]) [µM] | MIC, E. faecalis (E. faecalis ATCC 29212 [7]) [µM] | MIC, A. baumannii (A. baumannii ATCC 17978 [8]) [µM] | MIC, S. aureus (S. aureus ATCC 29213 [9]) [µM] | MIC, E. coli (E. coli ATCC 25922 [10]) [µM] | MBC, P. aeruginosa (P. aeruginosa [11]) [µM] | MBC, E. coli (E. coli ATCC 25922 [12]) [µM]
KKKKIIIAVLQLILLFL-NH2 [2d-N12] | > 128 | > 128 | > 128 | > 128 | > 128 | > 128 | > 128 | > 128 | > 128 | > 128 | > 128 | > 128
KKKKKKFVLKLILKLL-NH2 [2g-N12] | 128 | 128 | 128 | 128 | 128 | 64 | 64 | 128 | 128 | 128 | 128 | 128
KKKKKKFVLQLILKLL-NH2 [2h-N12] | > 128 | > 128 | > 128 | > 128 | > 128 | > 128 | > 128 | > 128 | > 128 | > 128 | > 128 | > 128
RRRRFVLRLILRLL-NH2 [2i-N12] | 64 | 128 | 128 | 128 | 128 | 64 | 64 | 128 | 64 | 64 | 128 | 128
RRRRRRFVLRLILRLL-NH2 [2j-N12] | 64 | 64 | 32 | 64 | 64 | 64 | 32 | 64 | 64 | 64 | 64 | 128
VKKKKKAVLQLILKFLRRRR-NH2 [3b-N10] | 4 | 16 | 4 | 8 | 8 | 16 | 4 | 8 | 8 | 16 | 4 | 16
VRRRRRAVLQLILRFL-NH2 [3a-N10] | 64 | 32 | 16 | 16 | 32 | 32 | 16 | 16 | 32 | 32 | 64 | 32
